In patent US11053204B2, “Pyrimidinyloxy benzene derivatives as herbicides” (FMC Corporation, priority 2015, dated 2021):

Key:
Experiment in all cases: Test C postemergence, plant response rating
Assay type in all cases: in vivo
[1] = test system: nutsedge, yellow (yellow nutsedge, Cyperus esculentus); conditions: for Plant response rating, Nutsedge, Yellow: scale 0 to 100; for Nutsedge, Yellow plant response rating: scale 0 to 100 (0 no effect, 100 complete control)
How it was run: (§1)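 Preemergence: seeds sown in loam–sand blend or silt loam and sprayed with test chemicals in a non-phytotoxic surfactant-containing solvent. Postemergence: potted plants at 2–18 cm (1–4-leaf stage) sprayed with the same formulation. After 13–15 d in greenhouse, visual rating versus controls on 0 (no effect) to 100 (complete control) scale.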

[2] = test system: waterhemp (common waterhemp, Amaranthus rudis); conditions: for Plant response rating, Waterhemp: scale 0 to 100; for Waterhemp plant response rating: scale 0 to 100 (0 no effect, 100 complete control)
How it was run: as §1

[3] = test system: barnyardgrass (Echinochloa crus-galli); conditions: for Plant response rating, Barnyardgrass: scale 0 to 100; for Barnyardgrass plant response rating: scale 0 to 100 (0 no effect, 100 complete control)
How it was run: as §1

[4] = test system: blackgrass (Alopecurus myosuroides); conditions: for Plant response rating, Blackgrass: scale 0 to 100; for Blackgrass plant response rating: scale 0 to 100 (0 no effect, 100 complete control)
How it was run: as §1

[5] = test system: lambsquarters (Chenopodium album); conditions: for Plant response rating, Lambsquarters: scale 0 to 100; for Lambsquarters plant response rating: scale 0 to 100 (0 no effect, 100 complete control)
How it was run: as §1

[6] = test system: galium (catchweed bedstraw, Galium aparine); conditions: for Plant response rating, Galium: scale 0 to 100; for Galium plant response rating: scale 0 to 100 (0 no effect, 100 complete control)
How it was run: as §1

[7] = test system: foxtail, giant (giant foxtail, Setaria faberii); conditions: for Plant response rating, Foxtail, Giant: scale 0 to 100; for Foxtail, Giant plant response rating: scale 0 to 100 (0 no effect, 100 complete control)
How it was run: as §1

[8] = test system: oilseed rape (Brassica napus); conditions: for Plant response rating, Oilseed Rape: scale 0 to 100; for Oilseed Rape plant response rating: scale 0 to 100 (0 no effect, 100 complete control)
How it was run: as §1

[9] = test system: soybean (Glycine max); conditions: for Plant response rating, Soybean: scale 0 to 100; for Soybean plant response rating: scale 0 to 100 (0 no effect, 100 complete control)
How it was run: as §1

[10] = test system: oat, wild (wild oat Avena fatua); conditions: for Plant response rating, Oat, Wild: scale 0 to 100; for Oat, Wild plant response rating: scale 0 to 100 (0 no effect, 100 complete control)
How it was run: as §1

[11] = test system: wheat (winter wheat, Triticum aestivum); conditions: for Plant response rating, Wheat: scale 0 to 100; for Wheat plant response rating: scale 0 to 100 (0 no effect, 100 complete control)
How it was run: as §1

[12] = test system: velvetleaf (Abutilon theophrasti); conditions: for Plant response rating, Velvetleaf: scale 0 to 100; for Velvetleaf plant response rating: scale 0 to 100 (0 no effect, 100 complete control)
How it was run: as §1

[13] = test system: corn (Zea mays); conditions: for Plant response rating, Corn: scale 0 to 100; for Corn plant response rating: scale 0 to 100 (0 no effect, 100 complete control)
How it was run: as §1

[14] = test system: crabgrass, large (large crabgrass, Digitaria sanguinalis); conditions: for Plant response rating, Crabgrass, Large: scale 0 to 100; for Crabgrass, Large plant response rating: scale 0 to 100 (0 no effect, 100 complete control)
How it was run: as §1

[15] = test system: ryegrass, Italian (Italian ryegrass, Lolium multiflorum); conditions: for Plant response rating, Ryegrass, Italian: scale 0 to 100; for Ryegrass, Italian plant response rating: scale 0 to 100 (0 no effect, 100 complete control)
How it was run: as §1

[16] = test system: ragweed (common ragweed, Ambrosia elatior); conditions: for Plant response rating, Ragweed: scale 0 to 100; for Ragweed plant response rating: scale 0 to 100 (0 no effect, 100 complete control)
How it was run: as §1

O=C(OCC(F)(F)F)c1c(Br)cccc1Oc1ncc(Cl)cn1 [Compound 35]
Plant response rating, Nutsedge, Yellow ([1]; 16 g ai/ha): 0 | Plant response rating, Nutsedge, Yellow ([1]; 31 g ai/ha): 0 | Nutsedge, Yellow plant response rating ([1]; 62 g ai/ha): 0 | Nutsedge, Yellow plant response rating ([1]; 125 g ai/ha): 5 | Plant response rating, Waterhemp ([2]; 16 g ai/ha): 65 | Plant response rating, Waterhemp ([2]; 31 g ai/ha): 80 | Waterhemp plant response rating ([2]; 62 g ai/ha): 90 | Waterhemp plant response rating ([2]; 125 g ai/ha): 95 | Plant response rating, Barnyardgrass ([3]; 16 g ai/ha): 5 | Plant response rating, Barnyardgrass ([3]; 31 g ai/ha): 5 | Barnyardgrass plant response rating ([3]; 62 g ai/ha): 10 | Barnyardgrass plant response rating ([3]; 125 g ai/ha): 15 | Plant response rating, Blackgrass ([4]; 16 g ai/ha): 0 | Plant response rating, Blackgrass ([4]; 31 g ai/ha): 0 | Blackgrass plant response rating ([4]; 62 g ai/ha): 10 | Blackgrass plant response rating ([4]; 125 g ai/ha): 10 | Plant response rating, Lambsquarters ([5]; 16 g ai/ha): 50 | Plant response rating, Lambsquarters ([5]; 31 g ai/ha): 40 | Lambsquarters plant response rating ([5]; 62 g ai/ha): 65 | Lambsquarters plant response rating ([5]; 125 g ai/ha): 70 | Plant response rating, Galium ([6]; 16 g ai/ha): 35 | Plant response rating, Galium ([6]; 31 g ai/ha): 35 | Galium plant response rating ([6]; 62 g ai/ha): 55 | Galium plant response rating ([6]; 125 g ai/ha): 60 | Plant response rating, Foxtail, Giant ([7]; 16 g ai/ha): 5 | Plant response rating, Foxtail, Giant ([7]; 31 g ai/ha): 10 | Foxtail, Giant plant response rating ([7]; 62 g ai/ha): 10 | Foxtail, Giant plant response rating ([7]; 125 g ai/ha): 20 | Plant response rating, Oilseed Rape ([8]; 16 g ai/ha): 20 | Plant response rating, Oilseed Rape ([8]; 31 g ai/ha): 30 | Oilseed Rape plant response rating ([8]; 62 g ai/ha): 50 | Oilseed Rape plant response rating ([8]; 125 g ai/ha): 65 | Plant response rating, Soybean ([9]; 16 g ai/ha): 25 | Plant response rating, Soybean ([9]; 31 g ai/ha): 25 | Soybean plant response rating ([9]; 62 g ai/ha): 35 | Soybean plant response rating ([9]; 125 g ai/ha): 35 | Plant response rating, Oat, Wild ([10]; 16 g ai/ha): 0 | Plant response rating, Oat, Wild ([10]; 31 g ai/ha): 0 | Oat, Wild plant response rating ([10]; 62 g ai/ha): 0 | Oat, Wild plant response rating ([10]; 125 g ai/ha): 0 | Plant response rating, Wheat ([11]; 16 g ai/ha): 0 | Plant response rating, Wheat ([11]; 31 g ai/ha): 0 | Wheat plant response rating ([11]; 62 g ai/ha): 0 | Wheat plant response rating ([11]; 125 g ai/ha): 0 | Plant response rating, Velvetleaf ([12]; 16 g ai/ha): 40 | Plant response rating, Velvetleaf ([12]; 31 g ai/ha): 30 | Velvetleaf plant response rating ([12]; 62 g ai/ha): 35 | Velvetleaf plant response rating ([12]; 125 g ai/ha): 40 | Plant response rating, Corn ([13]; 16 g ai/ha): 5 | Plant response rating, Corn ([13]; 31 g ai/ha): 10 | Corn plant response rating ([13]; 62 g ai/ha): 20 | Corn plant response rating ([13]; 125 g ai/ha): 20 | Plant response rating, Crabgrass, Large ([14]; 16 g ai/ha): 10 | Plant response rating, Crabgrass, Large ([14]; 31 g ai/ha): 10 | Crabgrass, Large plant response rating ([14]; 62 g ai/ha): 15 | Crabgrass, Large plant response rating ([14]; 125 g ai/ha): 10 | Plant response rating, Ryegrass, Italian ([15]; 16 g ai/ha): 0 | Plant response rating, Ryegrass, Italian ([15]; 31 g ai/ha): 0 | Ryegrass, Italian plant response rating ([15]; 62 g ai/ha): 5 | Ryegrass, Italian plant response rating ([15]; 125 g ai/ha): 5 | Plant response rating, Ragweed ([16]; 16 g ai/ha): 0 | Plant response rating, Ragweed ([16]; 31 g ai/ha): 5 | Ragweed plant response rating ([16]; 62 g ai/ha): 10 | Ragweed plant response rating ([16]; 125 g ai/ha): 20
